# ChEMBL document CHEMBL1148406, “Inhibition of adenosine deaminase by novel 5:7 fused heterocycles containing the imidazo[4,5-e][1,2,4]triazepine ring system: a structure-activity relationship study” (J Med Chem, 2004)
# Target: T1, Adenosine deaminase (Bos taurus, UniProt P56658)
# T1 sequence (P56658 whole entry): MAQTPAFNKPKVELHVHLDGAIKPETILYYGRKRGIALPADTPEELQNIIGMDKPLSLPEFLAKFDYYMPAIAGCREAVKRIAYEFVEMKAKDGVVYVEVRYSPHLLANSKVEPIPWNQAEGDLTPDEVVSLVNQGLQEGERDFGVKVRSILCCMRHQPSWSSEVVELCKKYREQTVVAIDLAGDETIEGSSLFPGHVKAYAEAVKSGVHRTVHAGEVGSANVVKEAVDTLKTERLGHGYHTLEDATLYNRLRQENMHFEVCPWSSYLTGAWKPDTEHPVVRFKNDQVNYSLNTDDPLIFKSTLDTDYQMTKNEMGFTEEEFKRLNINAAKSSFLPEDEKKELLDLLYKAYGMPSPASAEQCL
# Assay: Binding affinity towards calf spleen adenosine deaminase was determined
row,Ki [µM],SMILES
1,23,COCCOC1c2c(ncn2Cc2ccc(OC)cc2)N=CN(C)N1C (stereo not drawn)
2,24,COc1ccc(Cn2cnc3c2C(OC)N(C)N(C)C=N3)cc1 (stereo not drawn)
3,30,COc1ccc(Cn2cnc3c2C(OC(C)C)N(C)N(C)C=N3)cc1 (stereo not drawn)
4,77,COc1ccc(COC2c3c(ncn3Cc3ccc(OC)cc3)N=CN(C)N2C)cc1 (stereo not drawn)
5,15,CCCCOC1c2c(ncn2Cc2ccc(OC)cc2)N=CN(C)N1C (stereo not drawn)
6,12,CCCOC1c2c(ncn2Cc2ccc(OC)cc2)N=CN(C)N1C (stereo not drawn)
7,20,CCOC1c2c(ncn2Cc2ccc(OC)cc2)N=CN(C)N1C (stereo not drawn)
8,93,COc1ccc(Cn2cnc3c2C(OCc2cccc(C)c2)N(C)N(C)C=N3)cc1 (stereo not drawn)
